# PMC3706879, “The neurotrophic compound J147 reverses cognitive impairment in aged Alzheimer's disease mice” (Alzheimer's Research & Therapy, 2013)
# Experiments:
# Aβ1-40 and Aβ1-42 = experiment: Aβ ELISA of hippocampus of aged huAPP/PS1 mice; type: in vivo; conditions: three months J147
# Description: The APPswe/PS1ΔE9 transgenic mice have been previously characterized. The line 85 mice carry two transgenes, the mouse/human chimeric APP/Swe, linked to Swedish FAD and human PS1ΔE9. At 20 months of age both male and female transgenic mice were fed a high fat diet (Harlan Tekland, Madison, WI, USA) with and without J147 (200 ppm, 10 mg/kg/day). Treatment continued for three months and was followed by behavior testing and sacrifice of mice for tissue harvesting. […] (Data not shown).
# Hippocampal and entorhinal cortex tissue samples were homogenized in 10 volumes of RIPA lysis buffer (50 mM Tris, pH 7.5, 150 mM NaCl, 0.1% sodium dodecyl sulfate and 0.5% deoxycholate, and 1% NP40) containing a cocktail of protease and phosphatase inhibitors ([…] each of pepstatin A, aprotinin, phosphoramidon, and leupeptin; 0.5 mM 4-(2-aminoethyl) benzenesulfonyl fluoride hydrochloride; 1 mM EGTA; 5 mM fenvalerate; and 5 mM cantharidin). Samples were sonicated (2 × 10 s) and centrifuged at 100,000 × g for 60 minutes at 4°C. Protein concentrations in the cell extracts were determined using the BCA protein assay (Pierce supplied by Thermo Fisher Scientific, Rockford, IL, USA). Equal amounts of protein were solubilized in 2.5x SDS-sample buffer, separated on 12% SDS-polyacrylamide gels, transferred to Immobulin P and immunoblotted with the antibodies indicated in the Materials section. For Western blots, protein levels were normalized to actin levels. An unpaired t test was performed to compare between two groups at a single time point. When comparing multiple groups, one-way ANOVA followed by a Tukey's post hoc test was used. All statistical analysis was conducted using GraphPad Instat software.
# Aβ 1 to 40 and 1 to 42 levels in hippocampal lysate were analyzed using the Aβ1-40 and Aβ1-42 ELISA kits from Invitrogen (# KHB3481 and # KHB3442, respectively). All kit reagents were brought to room temperature before use. Standards were prepared according to the manufacturer's guidelines and samples were diluted as follows; RIPA fractions were diluted 1:10 for both Aβ1-40 and Aβ1-42; and RIPA insoluble fractions were diluted 1:2,000 for Aβ1-40 and 1:5,000 for Aβ1-42. A total of 50 μl of Aβ peptide standards and samples were added in duplicate to 96-well plates pre-coated with mAb to the NH2 terminus region of Aβ. Plates were incubated at 4°C overnight and then 50 μl of Hu Aβ40 or Aβ42 detection antibody was added to each well except the chromogen blanks. […] Stop solution was then added at 100 μl to each well followed by reading the absorbance of each well at 450 nm. […] The concentrations of the samples were calculated from the standard curve and multiplied by the dilution factor.
# normal rodents = system: normal rodents; set-up: method as in PMID 22194796; conditions: cited from earlier work
# C57BL/6J mice [1] = experiment: two-day water maze, scopolamine induced memory impairment; type: in vivo; conditions: scopolamine 1 mg/kg i.p.; J147 200 ppm, donepezil 20 ppm in food for two weeks
# Description: (§1) A total of 60 male mice aged eight weeks were housed 4 per cage and were divided into five groups with 12 mice per group. Treatments were administered in the food (TestDiet® 5015, Richmond, IN, USA) for a period of two weeks before commencement of behavioral testing. […] Following two weeks of treatment, memory impairment was induced by intraperitoneal (i.p.) injection of scopolamine (1 mg/kg) 30 minutes prior to each of the following behavioral tests: Y-maze, probe trial of the water maze and contextual and cued fear conditioning. Mice were allowed to rest for two days between each behavior test. All mice received scopolamine except for one of the control groups, which received saline as a control. Mice were sacrificed 24 hours after the last behavioral test for tissue harvesting.
# Spatial memory was determined using the two-day water maze in 23-month-old huAPPswe/PS1 transgenic mice fed J147 at 200 ppm in food for the previous three months. The protocol was adapted from a publication by Gulinello and colleagues. Water temperature remained at 27°C throughout the experiment. […] The time it took each mouse to find the hidden platform was measured as escape latency. […] All trials were recorded using the EthoVision Software and statistics were computed using GraphPad Instat software (GraphPad Software, San Diego, CA, USA).
# C57BL/6J mice [2] = experiment: Y-maze, scopolamine induced memory impairment; type: in vivo; conditions: scopolamine 1 mg/kg i.p.; J147 200 ppm, donepezil 20 ppm in food for two weeks
# Description: as §1
# Spontaneous alternation, the tendency to alternate free choices in a Y-maze (three arms), is a model for studying short term working memory in mice. Mice were injected with 1 mg/kg of scopolamine or saline 30 minutes prior to testing. Then each mouse was placed in the center of the Y and arm entries were recorded by video camera and the order of entries were recorded for the first 15 entries. Spontaneous alternations are defined as consecutive triplets of different arm choices.
smiles,measurement,setting,value
"COc1cccc(/C=N/N(C(=O)C(F)(F)F)c2ccc(C)cc2C)c1 [J147, (E)-N-(2,4-dimethylphenyl)-2,2,2-trifluoro-N'-(3methoxybenzyli-dene) acetohydrazide]","Aβ1-40 levels, RIPA insoluble fraction",Aβ1-40 and Aβ1-42,reduced
same,"Aβ1-42 levels, RIPA insoluble fraction",Aβ1-40 and Aβ1-42,not altered
same,RIPA soluble Aβ1-40,Aβ1-40 and Aβ1-42,decreased
same,RIPA soluble Aβ1-42,Aβ1-40 and Aβ1-42,decreased
same,memory in normal rodents,normal rodents,facilitates memory in normal rodents
same,spatial memory (time to find hidden platform),C57BL/6J mice [1],rescued this deficit in spatial memory
same,"short-term working memory (spontaneous alternations, Y maze)",C57BL/6J mice [2],improve short-term working memory
